Experimental data published in ChEMBL document CHEMBL1201862, “PubChem BioAssay data set” (2004).
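Briefly, cells in 96-well plates were exposed to five compound concentrations for 48 h, and endpoints were estimated by linear interpolation. The concentration for 50% growth inhibition is given as GI50.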 Calls of active or inactive are those of the source. Cut-off read from the data, not from the text of the source: active = GI50 up to about 1.1 µM and inactive = higher.

Legend:
Test in all cases: NCI-60 cell line screen, 48 h
[1] = system: 786-0
[2] = system: A498
[3] = system: A549
[4] = system: ACHN
[5] = system: BT-549
[6] = system: CAKI-1
[7] = system: CCRF-CEM
[8] = system: COLO 205
[9] = system: DU-145
[10] = system: EKVX
[11] = system: HCC 2998
[12] = system: HCT-116
[13] = system: HCT-15
[14] = system: HL-60
[15] = system: HOP-62
[16] = system: HOP-92
[17] = system: HT-29
[18] = system: Hs-578T
[19] = system: IGROV-1
[20] = system: K562
[21] = system: KM12
[22] = system: LOX IMVI
[23] = system: MCF7
[24] = system: MDA-MB-435
[25] = system: MDA-N
[26] = system: MOLT-4
[27] = system: NCI-H226
[28] = system: NCI-H460
[29] = system: NCI-H522
[30] = system: NCI/ADR-RES
[31] = system: OVCAR-3
[32] = system: OVCAR-4
[33] = system: OVCAR-5
[34] = system: OVCAR-8
[35] = system: PC-3
[36] = system: RPMI-8226
[37] = system: RXF 393
[38] = system: SF-295
[39] = system: SF-539
[40] = system: SK-MEL-28
[41] = system: SK-MEL-2
[42] = system: SK-MEL-5
[43] = system: SK-OV-3
[44] = system: SN12C
[45] = system: SNB-19
[46] = system: SNB-75
[47] = system: SR
[48] = system: SW-620
[49] = system: T47D
[50] = system: TK-10
[51] = system: U-251
[52] = system: UACC-257
[53] = system: UACC-62
[54] = system: UO-31
[55] = system: M14
[56] = system: MDA-MB-231
[57] = system: Malme-3M
[58] = system: NCI-H23
[59] = system: SF-268

Structure (SMILES): CC(C)(CNC(=O)/C(Cl)=C(/Cl)C(=O)O)CNC(=O)/C(Cl)=C(/Cl)C(=O)O
- GI50 [1]: > 100 µM (inactive)
- GI50 [2]: > 100 µM (inactive)
- GI50 [3]: > 100 µM (inactive)
- GI50 [4]: 28.4 µM (inactive)
- GI50 [5]: > 100 µM (inactive)
- GI50 [6]: > 100 µM (inactive)
- GI50 [7]: 39.3 µM (inactive)
- GI50 [8]: 18.2 µM (inactive)
- GI50 [9]: > 100 µM (inactive)
- GI50 [10]: > 100 µM (inactive)
- GI50 [11]: > 100 µM (inactive)
- GI50 [12]: 36.2 µM (inactive)
- GI50 [13]: > 10 µM
- GI50 [14]: 34 µM (inactive)
- GI50 [15]: > 100 µM (inactive)
- GI50 [16]: 78.3 µM (inactive)
- GI50 [17]: 48.5 µM (inactive)
- GI50 [18]: > 100 µM (inactive)
- GI50 [19]: > 100 µM (inactive)
- GI50 [20]: 40.1 µM (inactive)
- GI50 [21]: > 100 µM (inactive)
- GI50 [22]: 28.8 µM (inactive)
- GI50 [23]: 59.6 µM (inactive)
- GI50 [24]: > 100 µM (inactive)
- GI50 [25]: > 100 µM (inactive)
- GI50 [26]: 30.9 µM (inactive)
- GI50 [27]: > 100 µM (inactive)
- GI50 [28]: > 100 µM (inactive)
- GI50 [29]: 29.1 µM (inactive)
- GI50 [30]: > 100 µM (inactive)
- GI50 [31]: > 100 µM (inactive)
- GI50 [32]: > 100 µM (inactive)
- GI50 [33]: > 100 µM (inactive)
- GI50 [34]: > 100 µM (inactive)
- GI50 [35]: > 100 µM (inactive)
- GI50 [36]: 22.6 µM (inactive)
- GI50 [37]: > 100 µM (inactive)
- GI50 [38]: > 100 µM (inactive)
- GI50 [39]: 67.6 µM (inactive)
- GI50 [40]: > 100 µM (inactive)
- GI50 [41]: > 100 µM (inactive)
- GI50 [42]: > 100 µM (inactive)
- GI50 [43]: > 100 µM (inactive)
- GI50 [44]: > 10 µM (inactive)
- GI50 [45]: > 100 µM (inactive)
- GI50 [46]: > 100 µM (inactive)
- GI50 [47]: 44.6 µM (inactive)
- GI50 [48]: 40.6 µM (inactive)
- GI50 [49]: 92.7 µM (inactive)
- GI50 [50]: 64.3 µM (inactive)
- GI50 [51]: > 100 µM (inactive)
- GI50 [52]: > 100 µM (inactive)
- GI50 [53]: > 100 µM (inactive)
- GI50 [54]: > 100 µM (inactive)

Structure (SMILES): CC1=C/C(O)CC(=O)Cc2nc(co2)C(=O)N2CCC=C2C(=O)OC(C(C)C)C(C)/C=C\C(=O)NC/C=C\1 (stereo not drawn)
- GI50 [1]: 20.8 µM (inactive)
- GI50 [2]: 23.6 µM (inactive)
- GI50 [3]: 29.9 µM (inactive)
- GI50 [4]: 12.5 µM (inactive)
- GI50 [5]: 20.5 µM (inactive)
- GI50 [6]: 22 µM (inactive)
- GI50 [7]: 21.6 µM (inactive)
- GI50 [8]: 16.3 µM (inactive)
- GI50 [9]: 27.1 µM (inactive)
- GI50 [10]: 18.8 µM (inactive)
- GI50 [11]: 19.1 µM (inactive)
- GI50 [12]: 14.5 µM (inactive)
- GI50 [13]: 19.8 µM
- GI50 [14]: 20.3 µM (inactive)
- GI50 [15]: 31.5 µM (inactive)
- GI50 [17]: 15.5 µM (inactive)
- GI50 [18]: 20 µM (inactive)
- GI50 [19]: 16.6 µM (inactive)
- GI50 [20]: 31 µM (inactive)
- GI50 [21]: 12.4 µM (inactive)
- GI50 [22]: 17.2 µM (inactive)
- GI50 [55]: 17.3 µM (inactive)
- GI50 [23]: 19.1 µM (inactive)
- GI50 [56]: 23.9 µM (inactive)
- GI50 [24]: 24.8 µM (inactive)
- GI50 [25]: 14.2 µM (inactive)
- GI50 [26]: 16.6 µM (inactive)
- GI50 [57]: 11.7 µM (inactive)
- GI50 [27]: 17.7 µM (inactive)
- GI50 [58]: 17.1 µM (inactive)
- GI50 [28]: 54 µM (inactive)
- GI50 [29]: 0.176 µM (active)
- GI50 [31]: 19.8 µM (inactive)
- GI50 [32]: 57.9 µM (inactive)
- GI50 [33]: 18.8 µM (inactive)
- GI50 [34]: 15.3 µM (inactive)
- GI50 [35]: 27.1 µM (inactive)
- GI50 [36]: 12.9 µM (inactive)
- GI50 [59]: 16 µM (inactive)
- GI50 [38]: 48 µM (inactive)
- GI50 [39]: 30.1 µM (inactive)
- GI50 [40]: 19.6 µM (inactive)
- GI50 [41]: 17.4 µM (inactive)
- GI50 [42]: 33.4 µM (inactive)
- GI50 [43]: 53.1 µM (inactive)
- GI50 [44]: 14.9 µM (inactive)
- GI50 [45]: 89.3 µM (inactive)
- GI50 [46]: 11.3 µM (inactive)
- GI50 [47]: 15 µM (inactive)
- GI50 [48]: 18.1 µM (inactive)
- GI50 [49]: 12.2 µM (inactive)
- GI50 [50]: 31.6 µM (inactive)
- GI50 [51]: 35.8 µM (inactive)
- GI50 [52]: 35.3 µM (inactive)
- GI50 [53]: 16 µM (inactive)

Structure (SMILES): COc1c(-c2nc3ccc(N4CCN(C)CC4)nc3[nH]2)cc(OC)c2c1nc(CO)n2C
- GI50 [1]: > 100 µM (inactive)
- GI50 [3]: > 100 µM (inactive)
- GI50 [4]: > 100 µM (inactive)
- GI50 [5]: > 100 µM (inactive)
- GI50 [6]: > 100 µM (inactive)
- GI50 [7]: > 100 µM (inactive)
- GI50 [8]: 75.7 µM (inactive)
- GI50 [9]: > 100 µM (inactive)
- GI50 [10]: > 100 µM (inactive)
- GI50 [11]: > 100 µM (inactive)
- GI50 [12]: > 100 µM (inactive)
- GI50 [13]: > 100 µM
- GI50 [14]: 81.7 µM (inactive)
- GI50 [15]: > 100 µM (inactive)
- GI50 [16]: > 100 µM (inactive)
- GI50 [17]: > 100 µM (inactive)
- GI50 [18]: > 100 µM (inactive)
- GI50 [19]: > 100 µM (inactive)
- GI50 [20]: > 100 µM (inactive)
- GI50 [21]: > 100 µM (inactive)
- GI50 [22]: > 100 µM (inactive)
- GI50 [55]: > 100 µM (inactive)
- GI50 [56]: > 100 µM (inactive)
- GI50 [24]: > 100 µM (inactive)
- GI50 [25]: > 100 µM (inactive)
- GI50 [26]: > 100 µM (inactive)
- GI50 [57]: > 100 µM (inactive)
- GI50 [27]: > 100 µM (inactive)
- GI50 [58]: > 100 µM (inactive)
- GI50 [28]: > 100 µM (inactive)
- GI50 [29]: > 100 µM (inactive)
- GI50 [30]: > 100 µM (inactive)
- GI50 [31]: > 100 µM (inactive)
- GI50 [32]: > 100 µM (inactive)
- GI50 [33]: > 100 µM (inactive)
- GI50 [34]: > 100 µM (inactive)
- GI50 [35]: > 100 µM (inactive)
- GI50 [36]: > 100 µM (inactive)
- GI50 [37]: > 100 µM (inactive)
- GI50 [59]: > 100 µM (inactive)
- GI50 [38]: > 100 µM (inactive)
- GI50 [39]: 53.3 µM (inactive)
- GI50 [40]: > 100 µM (inactive)
- GI50 [41]: > 100 µM (inactive)
- GI50 [43]: > 100 µM (inactive)
- GI50 [44]: > 100 µM (inactive)
- GI50 [45]: > 100 µM (inactive)
- GI50 [46]: 31.1 µM (inactive)
- GI50 [48]: > 100 µM (inactive)
- GI50 [49]: > 100 µM (inactive)
- GI50 [51]: > 100 µM (inactive)
- GI50 [52]: > 100 µM (inactive)
- GI50 [53]: > 100 µM (inactive)
- GI50 [54]: > 100 µM (inactive)
